Target: D-xylose isomerase (Streptomyces pseudogriseolus, UniProt P24300)
Assay: competitive inhibition of D-xylose isomerization
Type: biochemical

Sequence of D-xylose isomerase (P24300 2-388): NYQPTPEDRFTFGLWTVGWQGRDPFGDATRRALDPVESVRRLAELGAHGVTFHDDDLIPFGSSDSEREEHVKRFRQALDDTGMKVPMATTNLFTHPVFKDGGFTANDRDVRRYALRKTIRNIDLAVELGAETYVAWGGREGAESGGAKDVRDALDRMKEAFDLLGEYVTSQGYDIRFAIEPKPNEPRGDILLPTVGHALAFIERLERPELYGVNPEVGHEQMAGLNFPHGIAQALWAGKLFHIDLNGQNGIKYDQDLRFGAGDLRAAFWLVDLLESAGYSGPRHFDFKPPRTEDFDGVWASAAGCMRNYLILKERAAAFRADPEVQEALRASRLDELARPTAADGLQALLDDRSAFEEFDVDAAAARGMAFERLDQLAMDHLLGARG

Ki: 3 mM
Compound: O=C[C@H](O)CO [DGA, D-glyceraldehyde]

— article PMC3217161 (2011)
